Measurements: US9783532B2, “Molecules having certain pesticidal utilities, and intermediates, compositions, and processes related thereto” (Dow AgroSciences LLC, priority 2013, dated 2017)

Experiments:
Format in all cases: in vivo
[1] = system: Cabbage Looper (Trichoplusia ni) ("CL"); assay: Bioassay on cabbage looper (CL), 128-well diet tray assay; details: 168 h, 50 μg/cm^2 on artificial diet, second instar CL larvae, 25° C., five to seven days, average of eight wells, read-out: CL % Control (or Mortality) rating
In short: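 Percent mortality, averaged across eight replicate wells, was read after five to seven days at 25 °C under a 14:10 photoperiod. Each well held one to five second-instar T. ni on diet carrying a dried 50 μg/cm^2 dose applied in acetone-water 90:10.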

[2] = system: Beet Armyworm (Spodoptera exigua) ("BAW"); assay: Bioassay on beet armyworm (BAW), 128-well diet tray assay; details: 168 h, 50 μg/cm^2 on artificial diet, second instar BAW larvae, 25° C., five to seven days, average of eight wells, read-out: BAW % Control (or Mortality) rating
In short: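 Percent mortality, averaged across eight wells, was read after five to seven days at 25° C. under 14:10 light-dark. Each well held one to five second-instar larvae on artificial diet that had been treated with 50 μg/cm^2 compound in 90:10 acetone-water and dried.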

[3] = system: Green Peach Aphid ("GPA") (Myzus persicae); assay: Bioassay on green peach aphid (GPA), foliar spray on cabbage seedlings; details: Myzus persicae, foliar, 72 h; 200 ppm spray on infested cabbage seedlings, three days, Abbott corrected % control; read-out: GPA % Control (or Mortality) rating
Experimental: Certain molecules disclosed in this document were tested against GPA using procedures described in the following example. In the reporting of the results, the “GPA Rating Table” was used (See Table Section).
Cabbage seedlings grown in 3-inch pots, with 2-3 small (3-5 cm) true leaves, were used as test substrate. The seedlings were infested with 20-50 GPA (wingless adult and nymph stages) one day prior to chemical application. Four pots with individual seedlings were used for each treatment. Test compounds (2 mg) were dissolved in 2 mL of acetone/methanol (1:1) solvent, forming stock solutions of 1000 ppm test compound. The stock solutions were diluted 5× with 0.025% Tween 20 in water to obtain the solution at 200 ppm test compound. A hand-held aspirator-type sprayer was used for spraying a solution to both sides of […] leaves until runoff. Reference plants (solvent check) were sprayed with the diluent only containing 20% by volume of acetone/methanol (1:1) solvent. Treated plants were held in a holding room for three days at approximately 25° C. and ambient relative humidity (RH) prior to grading. Evaluation was conducted by counting the number of live aphids per plant under a microscope. Percent Control was measured by using Abbott's correction formula (W. S. Abbott, “A Method of Computing the Effectiveness of an Insecticide” J. Econ. Entomol. 18 (1925), pp. 265-267) as follows. Corrected % Control=100*(X−Y)/X • where • X=No. of live aphids on solvent check plants and • Y=No. of live aphids on treated plants

[4] = system: Yellow Fever Mosquito "YFM" (Aedes aegypti); details: about 1 day-old larvae, 96-well plate, room temperature, 3 days, mortality
In short: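 About 1 day-old Aedes aegypti larvae in liver-powder water added to wells holding compound diluted from 4000 ppm DMSO stock with 90:10 water:acetone, 6 replicate plates. Plates kept covered at room temperature for 3 days. Wells scored for mortality and reported as rating categories.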

SMILES	mortality at 50 µg/cm2 [1] [%]	mortality at 50 µg/cm2 [2] [%]	mortality at 200 ppm [3] [%]	YFM % Control (or Mortality) rating [4]
CC(C)c1ccccc1N1C(=O)CS/C1=N\C(=O)NCCc1ccc(-c2ncn(-c3ccc(OC(F)(F)F)cc3)n2)cc1 [F1, (Z)-1-(3-(2-isopropylphenyl)-4-oxothiazolidin-2-ylidene)-3-(4-(1-(4-(trifluoromethoxy)phenyl)-1H-1,2,4-triazol-3-yl)phenethyl)urea]	50 to 100	50 to 100	0	–
Cc1ccc(C(C)C)c(NC(=S)NC(=O)NCCc2ccc(-c3ncn(-c4ccc(OC(F)(F)F)cc4)n3)cc2)c1 [F3, N-[5-methyl-2-isopropylphenyl]-N′-[2-(4-{1-[4-(trifluoromethoxy)-phenyl]-1H-1,2,4-triazol-3-yl}phenyl)ethyl]dicarbonimidothioic diamide]	50 to 100	50 to 100	0 to 80	–
Cc1ccc(C(C)C)c(N2C(=O)CS/C2=N\C(=O)NC(C)Cc2ccc(-c3ncn(-c4ccc(OC(F)(F)F)cc4)n3)cc2)c1 (stereo not drawn) [F8, (Z)-1-(3-(2-isopropropyl-5-methylphenyl)-4-oxothiazolidin-2-ylidene)-3-(1-(4-(1-(4-(trifluoromethoxy)phenyl)-1H-1,2,4-triazol-3-yl)phenyl)propan-2-yl)urea]	50 to 100	50 to 100	0	–
CC(C)c1ccccc1NC(=S)NC(=O)N/C=C/c1ccc(-c2ncn(-c3ccc(OC(F)(F)F)cc3)n2)cc1 [F11]	50 to 100	50 to 100	0	–
CC(C)c1ccccc1N1C(=O)CS/C1=N\C(=O)N/C=C/c1ccc(-c2ncn(-c3ccc(OC(F)(F)F)cc3)n2)cc1 [F12]	50 to 100	50 to 100	0	–
C/C(=C\NC(=O)/N=C1\SCC(=O)N1c1ccccc1C(C)C)c1ccc(-c2ncn(-c3ccc(OC(F)(F)F)cc3)n2)cc1 [F13, (Z)-1-(3-(2-isopropylphenyl)-4-oxothiazolidin-2-ylidene)-3-((E)-2-(4-(1-(4-(trifluoromethoxy)phenyl)-1H-1,2,4-triazol-3-yl)phenyl)prop-1-en-1-yl)urea]	50 to 100	50 to 100	0	–
CC(C)c1ccccc1NC(=S)NC(=O)NC1CC1c1ccc(-c2ncn(-c3ccc(OC(F)(F)F)cc3)n2)cc1 (stereo not drawn) [F22]	50 to 100	50 to 100	0	–
CCCc1ccccc1NC(=S)NC(=O)NC1CC1c1ccc(-c2ncn(-c3ccc(OC(F)(F)F)cc3)n2)cc1 (stereo not drawn) [F23]	50 to 100	50 to 100	0	–
CCc1cccc(C)c1NC(=S)NC(=O)NC1CC1c1ccc(-c2ncn(-c3ccc(OC(F)(F)F)cc3)n2)cc1 (stereo not drawn) [F24, N-(2-ethyl-6-methylphenyl)-N′-[2-(4-(1-[4-(trifluoromethoxy)phenyl]-1H-1,2,4-triazol-3-yl)phenyl)cyclopropyl]dicarbonimidothioic diamide]	50 to 100	50 to 100	0	–
Cc1cccc(C)c1NC(=S)NC(=O)NC1CC1c1ccc(-c2ncn(-c3ccc(OC(F)(F)F)cc3)n2)cc1 (stereo not drawn) [F25]	50 to 100	50 to 100	0	–
CCc1ccc(C)cc1NC(=S)NC(=O)NC1CC1c1ccc(-c2ncn(-c3ccc(OC(F)(F)F)cc3)n2)cc1 (stereo not drawn) [F27, N-(2-ethyl-5-methylphenyl)-N′-[2-(4-{1-[4-(trifluoromethoxy)phenyl]-1H-1,2,4-triazol-3-yl}phenyl)cyclopropyl]dicarbonimidothioic diamide]	50 to 100	50 to 100	0	–
Cc1ccc(C(C)C)c(NC(=S)NC(=O)NC2CC2c2ccc(-c3ncn(-c4ccc(OC(F)(F)F)cc4)n3)cc2)c1 (stereo not drawn) [F28, N-[5-methyl-2-(propan-2-yl)phenyl]-N-[2-(4-{1-[4-(trifluoromethoxy)phenyl]-1H-1,2,4-triazol-3-yl}phenyl)cyclopropyl]dicarbonimidothioic diamide]	50 to 100	50 to 100	0	–
CCc1cccc(C)c1N1C(=O)CS/C1=N\C(=O)NCCCCc1ccc(-c2ncn(-c3ccc(OC(F)(F)F)cc3)n2)cc1 [P153, (Z)-1-(3-(2-ethyl-6-methylphenyl)-4-oxothiazolidin-2-ylidene)-3-(4-(4-(1-(4-(trifluoromethoxy)phenyl)-1H-1,2,4-triazol-3-yl)phenyl)butyl)urea]	50 to 100	0	–	D (No activity noticed in this bioassay)
Cc1ccc(N2C(=O)CS/C2=N\C(=O)NCCCCc2ccc(-c3ncn(-c4ccc(OC(F)(F)F)cc4)n3)cc2)c(C(C)C)c1 [P154, (Z)-1-(3-(2-isopropyl-4-methylphenyl)-4-oxothiazolidin-2-ylidene)-3-(4-(4-(1-(4-(trifluoromethoxy)phenyl)-1H-1,2,4-triazol-3-yl)phenyl)butyl)urea]	50 to 100	50 to 100	–	B (More than 0-Less than 80)
CC(C)c1cc(F)ccc1N1C(=O)CS/C1=N\C(=O)NCCCCc1ccc(-c2ncn(-c3ccc(OC(F)(F)F)cc3)n2)cc1 [P155. P1162, (Z)-1-(3-(4-fluoro-2-isopropylphenyl)-4-oxothiazolidin-2-ylidene)-3-(4-(4-(1-(4-(trifluoromethoxy)phenyl)-1H-1,2,4-triazol-3-yl)phenyl)butyl)urea]	50 to 100	50 to 100	–	A (80-100)
COc1ccc(C(C)C)c(N2C(=O)CS/C2=N\C(=O)NCCCCc2ccc(-c3ncn(-c4ccc(OC(F)(F)F)cc4)n3)cc2)c1 [P156, P682, (Z)-1-(3-(2-isopropyl-5-methoxyphenyl)-4-oxothiazolidin-2-ylidene)-3-(4-(4-(1-(4-(trifluoromethoxy)phenyl)-1H-1,2,4-triazol-3-yl)phenyl)butyl)urea]	50 to 100	50 to 100	–	A (80-100)
Cc1ccc(C(C)C)c(N2C(=O)CS/C2=N\C(=O)NCCC#Cc2ccc(-c3ncn(-c4ccc(OC(F)(F)F)cc4)n3)cc2)c1 [P160, (Z)-1-(3-(2-isopropyl-5-methylphenyl)-4-oxothiazolidin-2-ylidene)-3-(4-(4-(1-(4-(trifluoromethoxy)phenyl)-1H-1,2,4-triazol-3-yl)phenyl)but-3-yn-1-yl)urea]	50 to 100	50 to 100	–	B (More than 0-Less than 80)
CC(C)c1ccccc1N1C(=O)CS/C1=N\C(=O)NCC(C)c1ccc(-c2ncn(-c3ccc(OC(F)(F)F)cc3)n2)cc1 (stereo not drawn) [P205, (Z)-1-(3-(2-isopropylphenyl)-4-oxothiazolidin-2-ylidene)-3-(2-(4-(1-(4-(trifluoromethoxy)phenyl)-1H-1,2,4-triazol-3-yl)phenyl)propyl)urea]	50 to 100	50 to 100	–	A (80-100)
COc1ccc(C(C)C)c(N2C(=O)CS/C2=N\C(=O)NCC(C)c2ccc(-c3ncn(-c4ccc(OC(F)(F)F)cc4)n3)cc2)c1 (stereo not drawn) [P679, (Z)-1-(3-(2-isopropyl-5-methoxyphenyl)-4-oxothiazolidin-2-ylidene)-3-(2-(4-(1-(4-(trifluoromethoxy)phenyl)-1H-1,2,4-triazol-3-yl)phenyl)propyl)urea]	50 to 100	50 to 100	–	A (80-100)
